For this assay, the target named is T1, recombinant human IKKb (Homo sapiens, UniProt O14920).
T1 sequence (O14920 1-756): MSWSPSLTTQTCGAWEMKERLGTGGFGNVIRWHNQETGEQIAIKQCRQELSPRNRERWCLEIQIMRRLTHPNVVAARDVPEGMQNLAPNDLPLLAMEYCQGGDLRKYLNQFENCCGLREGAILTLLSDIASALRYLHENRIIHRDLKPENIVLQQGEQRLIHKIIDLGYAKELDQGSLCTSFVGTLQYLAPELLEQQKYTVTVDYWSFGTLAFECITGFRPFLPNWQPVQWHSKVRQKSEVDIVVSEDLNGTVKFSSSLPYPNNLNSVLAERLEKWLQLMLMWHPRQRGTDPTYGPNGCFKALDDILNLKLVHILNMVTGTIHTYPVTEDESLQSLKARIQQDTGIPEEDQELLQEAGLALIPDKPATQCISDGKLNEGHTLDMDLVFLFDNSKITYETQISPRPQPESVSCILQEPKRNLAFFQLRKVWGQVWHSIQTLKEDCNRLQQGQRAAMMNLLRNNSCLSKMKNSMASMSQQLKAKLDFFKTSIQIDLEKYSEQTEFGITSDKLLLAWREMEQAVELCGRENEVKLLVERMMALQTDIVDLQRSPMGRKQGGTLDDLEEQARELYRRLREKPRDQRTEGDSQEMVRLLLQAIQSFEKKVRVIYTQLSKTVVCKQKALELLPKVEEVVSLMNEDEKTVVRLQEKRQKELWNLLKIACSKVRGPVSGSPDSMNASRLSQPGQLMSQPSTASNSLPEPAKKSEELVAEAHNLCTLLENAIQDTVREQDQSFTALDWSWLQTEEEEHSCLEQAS
The assay can be described thus: IKK kinase assay: incorporation of radiolabeled ATP into biotin-peptide substrate derived from IkB-alpha. The assay is classed as biochemical. The conditions noted are these: purified recombinant human IKKb 25 nM, ATP 10 μM, 30 min at 30° C. The procedure: This example describes an assay that is useful in evaluating and selecting a compound that modulates IKK. The assay measures the incorporation of radiolabeled ^3P gATP into the Biotin-peptide kinase substrate, derived from the IkB-alpha sequence.
In a 40 ul volume, 26 ul of ADB diluted, purified recombinant human IKKb [25 nM] was mixed with 4 ul 10× concentration of test compounds, [usually 100 uM-0.003 uM], [10%] DMSO and incubated for 10 minutes at room temperature. The kinase reaction was initiated by the addition of 10 ul 4× substrate cocktail containing the peptide substrate [0 or 30 μM] ATP [10 μM], and ^3PgATP [2 uCi/r×n]. After 30 minutes of incubation at 30° C., the reaction was terminated by the transfer of 25 ul reaction sample to a phosphocellulose membrane/plate containing 150 ul 0.75% phosphoric acid.
On the following day, the free radionucleotides in the phosphocellulose membrane were washed under vacuum with 3×200 ul of 0.75% phosphoric acid. After the last wash membrane/plates were transferred to an adoptor plate and 70 ul of scintillation cocktail was added to each well. After four hours, the amount of radioactivity for each well was counted in a top counter.

Each structure is given as a SMILES string. Some results are limits rather than exact numbers.

Turning to `N#Cc1cccc(-c2cc3c(N)ncc(C(N)=O)c3s2)c1` [Compound 12, 4-Amino-2-(3-cyano-phenyl)-thieno[3,2-c]pyridine-7-carboxylic acid amide], the half-maximal inhibitory concentration (IC50) is less than 1 µM.

In general, IC50 refers to the concentration needed to halve the response being measured.
